Results taken from ChEMBL document CHEMBL6127017, “Regulation of exercise ability and glycolipid metabolism by synthetic SR9009 analogues as new REV-ERB-α agonists” (Bioorg Med Chem, 2024).

Tests used:
HEK293 = assay: Agonist activity at Flag-tagged REV-ERBalpha (unknown origin) expressed in HEK293 cells co-expressing BMAL1 (unknown origin) assessed as relative strength index by measuring ratio of inhibitory rate of BMAL1 incubated for 24 hrs by Dual Glo-Luciferase assay relative to SR9009; format: cell-based; details: Homo sapiens
Mus musculus [1] = assay: Effect on exercise tolerance in high-fat diet-induced obese C57BL/6 mouse assessed as total running time at 200 mg/kg, IG for 7 days (reference value: 2954.50 sec); format: functional; details: time 7 day
Mus musculus [2] = assay: Effect on exercise tolerance in high-fat diet-induced obese C57BL/6 mouse assessed as total running distance at 200 mg/kg, IG for 7 days; format: functional; details: time 7 day
[3] = Agonist activity at Flag-tagged REV-ERBalpha (unknown origin) expressed in HEK293 cells co-expressing BMAL1 (unknown origin) inhibition of BMAL1 incubated for 24 hrs by Dual Glo-Luciferase assay; format: cell-based; details: Homo sapiens, HEK293, 24 h
[4] = Metabolic stability in human liver microsomes assessed as intrinsic clearance at 1 uM incubated upto 60 mins by LC-MS/MS analysis; format: ADME, Microsome; details: read-out: CLH
Mus musculus [5] = assay: Effect on exercise tolerance in normal diet-fed C57BL/6 mouse assessed as total running time at 200 mg/kg, IG for 3 days (reference value: 7002.00 sec); format: functional; details: time 3 day
[6] = Metabolic stability in human liver microsomes assessed as hepatic extraction ratio at 1 uM incubated upto 60 mins by LC-MS/MS analysis; format: ADME, Microsome; details: read-out: ERH
[7] = Metabolic stability in human liver microsomes assessed as compound remaining at 1 uM measured after 60 mins in presence of NADPH/UDPGA by LC-MS/MS analysis; format: ADME, Microsome; details: read-out: Stability
Mus musculus [8] = assay: Effect on exercise tolerance in normal diet-fed C57BL/6 mouse assessed as total running distance at 200 mg/kg, IG for 3 days (reference value: 2183.20 meter); format: functional; details: time 3 day
[9] = Metabolic stability in human liver microsomes assessed as compound remaining at 1 uM measured after 45 mins by LC-MS/MS analysis; format: ADME, Microsome; details: read-out: Stability
[10] = Metabolic stability in human liver microsomes assessed as compound remaining at 1 uM measured after 15 mins by LC-MS/MS analysis; format: ADME, Microsome; details: read-out: Stability
[11] = Metabolic stability in human liver microsomes assessed as compound remaining at 1 uM measured after 30 mins by LC-MS/MS analysis; format: ADME, Microsome; details: read-out: Stability
Mus musculus [12] = assay: Effect on blood lipid level in high-fat diet-induced obese C57BL/6 mouse assessed as total cholesterol level at 200 mg/kg, IG for 7 days (reference value: 4.69 mmol/L); format: functional; details: time 7 day
[13] = Metabolic stability in human liver microsomes assessed as compound remaining at 1 uM measured immediately by LC-MS/MS analysis; format: ADME, Microsome; details: read-out: Stability
[14] = Metabolic stability in human liver microsomes assessed as compound remaining at 1 uM measured after 45 mins in presence of NADPH/UDPGA by LC-MS/MS analysis; format: ADME, Microsome; details: read-out: Stability
Mus musculus [15] = assay: Effect on blood lipid level in high-fat diet-induced obese C57BL/6 mouse assessed as decrease in blood glucose level at 200 mg/kg, IG for 7 days (reference value: 10.77 mmol/L); format: functional; details: time 7 day
[16] = Metabolic stability in human liver microsomes assessed as compound remaining at 1 uM measured after 30 mins in presence of NADPH/UDPGA by LC-MS/MS analysis; format: ADME, Microsome; details: read-out: Stability
[17] = Metabolic stability in human liver microsomes assessed as compound remaining at 1 uM measured after 15 mins in presence of NADPH/UDPGA by LC-MS/MS analysis; format: ADME, Microsome; details: read-out: Stability
[18] = Metabolic stability in human liver microsomes assessed as compound remaining at 1 uM measured after 60 mins by LC-MS/MS analysis; format: ADME, Microsome; details: read-out: Stability
[19] = Cytotoxicity against MDCK cells; format: toxicity, cell-based, Canis lupus familiaris; details: dog, read-out: TC50 (the source's name)
[20] = Metabolic stability in human liver microsomes assessed as compound remaining at 1 uM measured immediately in presence of NADPH/UDPGA by LC-MS/MS analysis; format: ADME, Microsome; details: read-out: Stability
[21] = Metabolic stability in human liver microsomes assessed as half life at 1 uM incubated upto 60 mins by LC-MS/MS analysis; format: ADME, Microsome
Mus musculus [22] = assay: Effect on blood lipid level in high-fat diet-induced obese C57BL/6 mouse assessed as triglyceride level at 200 mg/kg, IG for 7 days (reference value: 2.07 mmol/L); format: functional; details: time 7 day

SMILES: O=C(c1ccco1)N1CCC(CN(Cc2ccc(Cl)cc2)Cc2ccc([N+](=O)[O-])s2)C1 (stereo not drawn)
- Ratio (HEK293; filed as agonist): 126%
- Time (Mus musculus [1]): 4165.38 s
- Activity (Mus musculus [2]): 836.67 m
- EC50 [3]: 7.15 µM

SMILES: O=C(c1ccc(Br)o1)N1CCC(CN(Cc2ccc(Cl)cc2)Cc2ccc([N+](=O)[O-])s2)C1 (stereo not drawn)
- Ratio (HEK293; filed as agonist): 120%
- Time (Mus musculus [1]): 4130 s
- Activity (Mus musculus [2]): 797.96 m
- EC50 [3]: 8.29 µM

SMILES: O=C(C1CCC1)N1CCC(CN(Cc2ccc(Cl)cc2)Cc2ccc([N+](=O)[O-])s2)C1 (stereo not drawn)
- Ratio (HEK293; filed as agonist): 116%
- Time (Mus musculus [1]): 3159 s
- Activity (Mus musculus [2]): 572.8 m
- EC50 [3]: 9.21 µM

SMILES: O=C(Cc1cccs1)N1CCC(CN(Cc2ccc(Cl)cc2)Cc2ccc([N+](=O)[O-])s2)C1 (stereo not drawn)
- Ratio (HEK293; filed as agonist): 121%
- Time (Mus musculus [1]): 3726.88 s
- Activity (Mus musculus [2]): 686.85 m
- EC50 [3]: 8.88 µM

SMILES: CC1CCC(N(Cc2ccc([N+](=O)[O-])s2)CC2CCN(C(=O)OC(C)(C)C)C2)CC1 (stereo not drawn)
- Ratio (HEK293): 26.8%

SMILES: CCOC(=O)N1CCC(CN(Cc2ccc(Cl)cc2)Cc2ccc([N+](=O)[O-])s2)C1 (stereo not drawn) [SR9009]
- microsomal CLint at 1 µM [4]: 622 µL/min/mg
- Time (Mus musculus [5]): 9908.5 s
- hepatic extraction ratio at 1 h, 1 µM [6]: 0.97
- remaining at 1 h, 1 µM [7]: 0.06%
- Activity (Mus musculus [8]): 3121.42 m
- remaining at 0.75 h, 1 µM [9]: 85.6%
- remaining at 0.25 h, 1 µM [10]: 85.6%
- remaining at 0.5 h, 1 µM [11]: 98.5%
- Activity (Mus musculus [12]): 4.03 mmol/L
- remaining at 0 min, 1 µM [13]: 100%
- remaining at 0.75 h, 1 µM [14]: 0.08%
- Activity (Mus musculus [15]): 9.46 mmol/L
- remaining at 0.5 h, 1 µM [16]: 0.04%
- remaining at 0.25 h, 1 µM [17]: 0.94%
- remaining at 1 h, 1 µM [18]: 103%
- Time (Mus musculus [1]): 5428.38 s
- Activity (Mus musculus [2]): 1177.69 m
- CC50 [19]: 38.5 µM
- EC50 [3]: 8.57 µM
- remaining at 0 min, 1 µM [20]: 100%
- half-life at 1 µM [21]: 2.23 min
- Activity (Mus musculus [22]): 1.07 mmol/L

SMILES: COc1ccccc1CN(Cc1ccc([N+](=O)[O-])s1)CC1CCN(C(=O)C2CC2)C1 (stereo not drawn)
- Ratio (HEK293): 5.77%
- CC50 [19]: 38.5 µM

SMILES: O=C(C1CC1)N1CCC(CN(Cc2ccc3c(c2)OCO3)Cc2ccc([N+](=O)[O-])s2)C1 (stereo not drawn)
- Ratio (HEK293; filed as agonist): 70.7%
- CC50 [19]: 15.4 µM

SMILES: O=C(C1CC1)N1CCC(CN(Cc2ccc(Cl)cc2)Cc2ccc([N+](=O)[O-])s2)C1 (stereo not drawn)
- Ratio (HEK293; filed as agonist): 55%

SMILES: O=C(C1CC1)N1CCC(CN(Cc2ccc([N+](=O)[O-])s2)Cc2ccc(F)cc2Cl)C1 (stereo not drawn)
- Ratio (HEK293; filed as agonist): 89.4%
- CC50 [19]: 38.5 µM
- EC50 [3]: 8.31 µM

SMILES: COc1ccc(CN(Cc2ccc([N+](=O)[O-])s2)CC2CCN(C(=O)C3CC3)C2)cc1OC (stereo not drawn)
- Ratio (HEK293; filed as agonist): 43.4%
- CC50 [19]: 32 µM

SMILES: O=C(C1CC1)N1CCC(CN(Cc2cc(Cl)cc(Cl)c2)Cc2ccc([N+](=O)[O-])s2)C1 (stereo not drawn)
- Ratio (HEK293; filed as agonist): 64.7%
- CC50 [19]: 12.8 µM

SMILES: O=C(C1CC1)N1CCC(CN(Cc2ccc([N+](=O)[O-])s2)Cc2ccc(F)cc2F)C1 (stereo not drawn)
- microsomal CLint at 1 µM [4]: 601 µL/min/mg
- Time (Mus musculus [5]): 9087.88 s
- hepatic extraction ratio at 1 h, 1 µM [6]: 0.97
- remaining at 1 h, 1 µM [7]: 0.07%
- Activity (Mus musculus [8]): 2843.74 m
- Ratio (HEK293; filed as agonist): 98.2%
- remaining at 0.75 h, 1 µM [9]: 105%
- remaining at 0.25 h, 1 µM [10]: 106%
- remaining at 0.5 h, 1 µM [11]: 103%
- Activity (Mus musculus [12]): 3.83 mmol/L
- remaining at 0 min, 1 µM [13]: 100%
- remaining at 0.75 h, 1 µM [14]: 0.16%
- Activity (Mus musculus [15]): 6.79 mmol/L
- remaining at 0.5 h, 1 µM [16]: 0.23%
- remaining at 0.25 h, 1 µM [17]: 1.1%
- remaining at 1 h, 1 µM [18]: 108%
- Time (Mus musculus [1]): 5805 s
- Activity (Mus musculus [2]): 1042.52 m
- CC50 [19]: 38.5 µM
- EC50 [3]: 4.93 µM
- remaining at 0 min, 1 µM [20]: 100%
- half-life at 1 µM [21]: 2.3 min
- Activity (Mus musculus [22]): 1.04 mmol/L

SMILES: O=C(CC1CC1)N1CCC(CN(Cc2ccc(Cl)cc2)Cc2ccc([N+](=O)[O-])s2)C1 (stereo not drawn)
- Ratio (HEK293; filed as agonist): 73.2%

SMILES: O=C(C1CC1)N1CCC(CN(Cc2cccc(Cl)c2)Cc2ccc([N+](=O)[O-])s2)C1 (stereo not drawn)
- Ratio (HEK293; filed as agonist): 51%
- CC50 [19]: 22.2 µM

SMILES: O=C(C1CC1)N1CCC(CN(Cc2cccc(Br)c2)Cc2ccc([N+](=O)[O-])s2)C1 (stereo not drawn)
- Ratio (HEK293; filed as agonist): 89.8%
- CC50 [19]: 15.4 µM

SMILES: O=C(NS(=O)(=O)N1CCC(CN(Cc2ccc(Cl)cc2)Cc2ccc([N+](=O)[O-])s2)C1)OCC1CC1 (stereo not drawn)
- Ratio (HEK293; filed as agonist): 63%

SMILES: C=CC(=O)N1CCC(CN(Cc2ccc(Cl)cc2)Cc2ccc([N+](=O)[O-])s2)C1 (stereo not drawn)
- Ratio (HEK293; filed as agonist): 125%
- Time (Mus musculus [1]): 4516.75 s
- Activity (Mus musculus [2]): 910.9 m
- EC50 [3]: 8.65 µM

SMILES: O=C(NS(=O)(=O)N1CCC(CN(Cc2ccc(Cl)cc2)Cc2ccc([N+](=O)[O-])s2)C1)OCC1CCCC1 (stereo not drawn)
- Ratio (HEK293): 34.3%

SMILES: COc1cccc(CN(Cc2ccc([N+](=O)[O-])s2)CC2CCN(C(=O)C3CC3)C2)c1 (stereo not drawn)
- Ratio (HEK293; filed as agonist): 64.5%
- CC50 [19]: 15.4 µM

SMILES: CC(F)C(=O)N1CCC(CN(Cc2ccc(Cl)cc2)Cc2ccc([N+](=O)[O-])s2)C1 (stereo not drawn)
- Ratio (HEK293; filed as agonist): 85.4%

SMILES: C=CC(=O)N1CCC(CN(Cc2ccc(F)cc2)Cc2ccc([N+](=O)[O-])s2)C1 (stereo not drawn)
- Ratio (HEK293; filed as agonist): 61.2%

SMILES: O=C(C1CC1)N1CCC(CN(Cc2ccc(Cl)c(Cl)c2)Cc2ccc([N+](=O)[O-])s2)C1 (stereo not drawn)
- microsomal CLint at 1 µM [4]: 411 µL/min/mg
- Time (Mus musculus [5]): 10034.25 s
- hepatic extraction ratio at 1 h, 1 µM [6]: 0.96
- remaining at 1 h, 1 µM [7]: 0.15%
- Activity (Mus musculus [8]): 3115.39 m
- Ratio (HEK293; filed as agonist): 84.8%
- remaining at 0.75 h, 1 µM [9]: 93.3%
- remaining at 0.25 h, 1 µM [10]: 93.2%
- remaining at 0.5 h, 1 µM [11]: 108%
- Activity (Mus musculus [12]): 4.5 mmol/L
- remaining at 0 min, 1 µM [13]: 100%
- remaining at 0.75 h, 1 µM [14]: 0.3%
- Activity (Mus musculus [15]): 6.82 mmol/L
- remaining at 0.5 h, 1 µM [16]: 0.91%
- remaining at 0.25 h, 1 µM [17]: 4.6%
- remaining at 1 h, 1 µM [18]: 90.1%
- Time (Mus musculus [1]): 5011.38 s
- Activity (Mus musculus [2]): 1061.4 m
- CC50 [19]: 10.7 µM
- EC50 [3]: 5.99 µM
- remaining at 0 min, 1 µM [20]: 100%
- half-life at 1 µM [21]: 3.37 min
- Activity (Mus musculus [22]): 1.12 mmol/L

SMILES: O=C(C1CC1)N1CCC(CN(Cc2ccc([N+](=O)[O-])s2)Cc2c(F)cccc2Cl)C1 (stereo not drawn)
- Ratio (HEK293): 30.2%
